Data reported in BindingDB's records for doi:10.1002/cbic.201100587 (2012).

biological target: Glutamine--fructose-6-phosphate transaminase (isomerizing) (Saccharomyces cerevisiae (strain YJM789), UniProt A6ZZL3); test: Inhibition Assay
From the text: The inhibition assay was followed under standard conditions with saturating concentrations of both substrates to determine the IC50 values.

Chain of Glutamine--fructose-6-phosphate transaminase (isomerizing) (A6ZZL3 whole entry): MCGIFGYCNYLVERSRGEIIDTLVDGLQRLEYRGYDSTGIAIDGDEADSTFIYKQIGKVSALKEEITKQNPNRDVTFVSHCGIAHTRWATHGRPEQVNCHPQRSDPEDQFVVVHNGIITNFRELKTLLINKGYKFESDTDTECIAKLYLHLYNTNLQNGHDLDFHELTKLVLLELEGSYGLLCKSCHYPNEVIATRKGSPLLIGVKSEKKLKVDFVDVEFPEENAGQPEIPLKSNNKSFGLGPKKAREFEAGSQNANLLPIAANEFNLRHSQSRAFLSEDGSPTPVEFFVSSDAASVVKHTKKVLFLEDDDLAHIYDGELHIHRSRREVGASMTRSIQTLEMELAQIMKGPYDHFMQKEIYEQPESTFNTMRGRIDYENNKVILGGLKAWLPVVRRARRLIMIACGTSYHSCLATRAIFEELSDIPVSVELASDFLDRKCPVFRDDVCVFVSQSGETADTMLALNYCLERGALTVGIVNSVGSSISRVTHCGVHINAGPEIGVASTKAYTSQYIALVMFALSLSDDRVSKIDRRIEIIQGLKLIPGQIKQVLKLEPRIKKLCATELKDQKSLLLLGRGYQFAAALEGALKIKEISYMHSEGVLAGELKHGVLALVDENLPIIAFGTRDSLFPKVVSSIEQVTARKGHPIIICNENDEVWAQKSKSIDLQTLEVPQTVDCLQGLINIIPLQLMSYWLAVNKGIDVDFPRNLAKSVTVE

Going from `N[C@@H](CNC(=O)[C@@H]1O[C@H]1C(=O)c1ccccc1)C(=O)O` [N3-Oxoacyl derivative, 1] to `N[C@@H](CNC(=O)/C=C/C(=O)c1ccccc1)C(=O)O` [N3-Oxoacyl derivative, 3], the IC50 falls from 0.66 mM to 0.27 mM (2.4-fold).

`CC(=O)[C@@H]1O[C@H]1C(=O)NC[C@H](N)C(=O)O` [N3-Oxoacyl derivative, 2] and `CC(=O)C=CC(=O)NC[C@H](N)C(=O)O` [N3-Oxoacyl derivative, 4] are within 1.5-fold of each other in IC50: 7.35 mM for the first, 5.6 mM for the second.

Going from `N[C@@H](CNC(=O)[C@@H]1O[C@H]1C(=O)c1ccccc1)C(=O)O` [N3-Oxoacyl derivative, 1] to `N[C@@H](CNC(=O)/C=C/C(=O)c1ccccc1)C(=O)O` [N3-Oxoacyl derivative, 3], the Ki falls from 0.45 mM to 0.0565 mM (8-fold).

`CC(=O)[C@@H]1O[C@H]1C(=O)NC[C@H](N)C(=O)O` [N3-Oxoacyl derivative, 2] and `CC(=O)C=CC(=O)NC[C@H](N)C(=O)O` [N3-Oxoacyl derivative, 4] are within 1.5-fold of each other in Ki: 19.4 mM for the first, 15.2 mM for the second.
